Reference: PMC8742467, “Therapeutical interference with the epigenetic landscape of germ cell tumors: a comparative drug study and new mechanistical insights” (Clinical Epigenetics, 2022)

Experiments:
Type in all cases: cell-based, Human
[1] = test system: histone modifications in 2102EP cells; experiment: Mass spectrometry analysis of histone modifications (Mod Spec)
Protocol: 2102EP cells were treated with the EC50 concentrations for Quisinostat, JIB-04, Chaetocin, MZ-1, LP99, PRT4165, GSK343 and DMSO as solvent control. The cells were harvested via trypsinization after 16 h. The mass spectrometric analysis of histone modifications was outsourced to the Mod Spec service by Active Motif (Carlsbad, CA, USA). Histone extraction and mass spectrometric analysis was performed as described previously. Raw data were transformed into z-scores as the input. The heatmap was generated in R using ‘pheatmap’ with default settings and provided by Active Motif.

2102EP-R = experiment: Flow cytometry apoptosis (Annexin V/PI), 2102EP-R; conditions: EC50, 16 h, compared to the parental cell line
GCT cells = experiment: Flow cytometry cell cycle (PI), GCT cells; conditions: EC50, 16 h
Protocol: For Annexin V/PI staining, cells were washed with Annexin V Binding Buffer before being resuspended in 70 µl Annexin V Binding Buffer and 2.5 μl Annexin V FITC-conjugate (both Miltenyi Biotec, Bergisch Gladbach, Germany) and 15 µg PI (Sigma-Aldrich, Taufkirchen, Germany) and incubated in the dark at room temperature for 15 min. 500 µl of Annexin V Binding Buffer was added before measurement. For the cell cycle analysis, cells were washed with PBS (phosphate buffered saline), fixed by ice cold 70% ethanol and stained with 2 µg/ml PI and 200 µg/ml RNaseA (Quiagen, Hilden, Germany 100 mg/ml) in PBS shortly before every measurement. At least 5 × 10^4 cells were counted and analyzed using the MACSQuant software v 2.13.0.

[2] = 2102EP cells, Mod Spec raw data

Cc1cc(=O)n(C)c2cc(N3C(=O)CC[C@H](NS(=O)(=O)CC(C)C)[C@H]3c3ccc(Cl)cc3)ccc12 [LP99]
H3: K79ME3, % of peptide pool [1, 2]: 8.372%
H3: K79UN, % of peptide pool [1, 2]: 70.1029%
H3: K122AC, % of peptide pool [1, 2]: 0.1106%
H3: K122UN, % of peptide pool [1, 2]: 99.8894%
H3: Q19ME1, % of peptide pool [1, 2]: 0.008159%
H3: Q19UN, % of peptide pool [1, 2]: 99.9918%
H3: Q55ME1, % of peptide pool [1, 2]: 0.125%
H3: Q55UN, % of peptide pool [1, 2]: 99.875%
H3: R42ME2, % of peptide pool [1, 2]: 2.022%
H3: R42UN, % of peptide pool [1, 2]: 97.9783%
H3: R49ME2, % of peptide pool [1, 2]: 5.836%
H3: R49UN, % of peptide pool [1, 2]: 94.1642%
H3R2UN: K4AC, % of peptide pool [1, 2]: 0.0493%
H3R2UN: K4ME1, % of peptide pool [1, 2]: 17.3555%
H3R2UN: K4ME2, % of peptide pool [1, 2]: 0.1607%
H3R2UN: K4ME3, % of peptide pool [1, 2]: 0.06122%
H3R2UN: K4UN, % of peptide pool [1, 2]: 82.3733%
H3R2UN: Q5ME1, % of peptide pool [1, 2]: 0.0589%
H3R2UN: Q5UN, % of peptide pool [1, 2]: 99.9411%
H3.1: K27AC, % of peptide pool [1, 2]: 1.848%
H3.1: K27ME1, % of peptide pool [1, 2]: 50.2872%
H3.1: K27ME2, % of peptide pool [1, 2]: 19.0002%
H3.1: K27ME3, % of peptide pool [1, 2]: 2.587%
H3.1: K27UN, % of peptide pool [1, 2]: 26.2781%
H3.1: K36AC, % of peptide pool [1, 2]: 0.1934%
H3.1: K36ME1, % of peptide pool [1, 2]: 15.1441%
H3.1: K36ME2, % of peptide pool [1, 2]: 47.7578%
H3.1: K36ME3, % of peptide pool [1, 2]: 20.1942%
H3.1: K36UN, % of peptide pool [1, 2]: 16.7105%
H3.3: K27AC, % of peptide pool [1, 2]: 4.526%
H3.3: K27M, % of peptide pool [1, 2]: 0%
H3.3: K27ME1, % of peptide pool [1, 2]: 50.6483%
H3.3: K27ME2, % of peptide pool [1, 2]: 13.3962%
H3.3: K27ME3, % of peptide pool [1, 2]: 4.205%
H3.3: K27UN, % of peptide pool [1, 2]: 27.2241%
H3.3: K36AC, % of peptide pool [1, 2]: 1.988%
H3.3: K36ME1, % of peptide pool [1, 2]: 13.5047%
H3.3: K36ME2, % of peptide pool [1, 2]: 50.9616%
H3.3: K36ME3, % of peptide pool [1, 2]: 19.8606%
H3.3: K36UN, % of peptide pool [1, 2]: 13.6847%
H4: K5AC, % of peptide pool [1, 2]: 6.718%
H4: K5UN, % of peptide pool [1, 2]: 93.2819%
H4: K8AC, % of peptide pool [1, 2]: 9.0591%
H4: K8UN, % of peptide pool [1, 2]: 90.9409%
H4: K12AC, % of peptide pool ([1]; 2102EP cells, Mod Spec raw data, histone H4 K12 acetylated): 5.085 % of peptide pool
H4: K12UN, % of peptide pool ([1]; 2102EP cells, Mod Spec raw data, histone H4 K12 unmodified): 94.9152 % of peptide pool
H4: K16AC, % of peptide pool ([1]; 2102EP cells, Mod Spec raw data, histone H4 K16 acetylated): 42.3745 % of peptide pool
H4: K16UN, % of peptide pool ([1]; 2102EP cells, Mod Spec raw data, histone H4 K16 unmodified): 57.6255 % of peptide pool
H4: K20AC, % of peptide pool ([1]; 2102EP cells, Mod Spec raw data, histone H4 K20 acetylated): 21.754 % of peptide pool
H4: K20ME2, % of peptide pool ([1]; 2102EP cells, Mod Spec raw data, histone H4 K20 dimethylated): 43.6517 % of peptide pool
H4: K20ME1, % of peptide pool ([1]; 2102EP cells, Mod Spec raw data, histone H4 K20 monomethylated): 4.449 % of peptide pool
H4: K20ME3, % of peptide pool ([1]; 2102EP cells, Mod Spec raw data, histone H4 K20 trimethylated): 1.292 % of peptide pool
H4: K20UN, % of peptide pool ([1]; 2102EP cells, Mod Spec raw data, histone H4 K20 unmodified): 28.8535 % of peptide pool
change of histone modifications of the expected mode of action (Mod Spec) ([1]; 2102EP, EC50, 16 h, vs solvent control): general decrease in histone acetylation
apoptosis induction in 2102EP-R (2102EP-R): did not induce apoptosis
cell cycle phase accumulation in GCT cells (GCT cells): accumulated in the G0/G1 phase
